The source made the active and inactive calls. Cut-off read from the data, not from the text of the source: actives have a measured IC50 and inactives only a lower limit.

For the assay, the target named is Envelope glycoprotein gp160 (Human immunodeficiency virus 1, UniProt Q6QLK5). The experiment in a line: cell-free HIV fusion peptide-binding blockers – biochemical, uHTS, fluorescence dequenching, […] (AID 1986).
Sequence of Envelope glycoprotein gp160 (Q6QLK5 whole entry, the tested form may be a part): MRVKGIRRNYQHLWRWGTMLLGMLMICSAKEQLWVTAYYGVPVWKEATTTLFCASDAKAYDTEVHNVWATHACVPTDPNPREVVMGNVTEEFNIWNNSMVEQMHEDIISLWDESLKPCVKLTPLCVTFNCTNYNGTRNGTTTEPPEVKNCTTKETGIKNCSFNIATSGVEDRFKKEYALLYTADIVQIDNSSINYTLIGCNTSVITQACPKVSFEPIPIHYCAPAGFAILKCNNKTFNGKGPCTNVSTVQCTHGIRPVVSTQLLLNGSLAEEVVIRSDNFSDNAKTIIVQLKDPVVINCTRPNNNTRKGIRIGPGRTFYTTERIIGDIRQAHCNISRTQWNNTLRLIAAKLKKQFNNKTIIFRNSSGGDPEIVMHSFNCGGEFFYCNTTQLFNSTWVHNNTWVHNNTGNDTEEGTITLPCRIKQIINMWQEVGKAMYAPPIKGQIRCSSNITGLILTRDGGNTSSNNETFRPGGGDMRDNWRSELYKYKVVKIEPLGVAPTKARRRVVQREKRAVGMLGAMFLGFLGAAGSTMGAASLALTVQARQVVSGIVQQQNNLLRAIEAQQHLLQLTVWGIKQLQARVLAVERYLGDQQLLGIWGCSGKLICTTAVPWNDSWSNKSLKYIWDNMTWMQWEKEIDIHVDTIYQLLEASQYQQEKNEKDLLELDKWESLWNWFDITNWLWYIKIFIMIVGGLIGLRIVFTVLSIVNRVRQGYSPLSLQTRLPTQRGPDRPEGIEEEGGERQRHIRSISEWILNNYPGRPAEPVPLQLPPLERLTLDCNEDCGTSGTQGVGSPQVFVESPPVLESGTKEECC
Regarding `COC(=O)c1sc(-c2ccc(C(C)(C)C)cc2)cc1NC(=O)CSCC(=O)O`, the 50% inhibitory concentration (IC50) (in general, the point on the concentration scale where inhibition reaches its midpoint) is 15.4 µM (active). The result for `COc1cc(/C=C2\C(=N)N3N=C(S(C)(=O)=O)SC3=NC2=O)cc(OC)c1OCCOc1ccc(C)cc1` reads 11 µM (active). The result for `O=C(CCN1C(=O)/C(=C/c2ccccc2Cl)SC1=S)Nc1ccccc1C(=O)O` reads 19.4 µM (active).

Source of the values: ChEMBL document CHEMBL1201862, “PubChem BioAssay data set” (2004).
